{"source": "ChEMBL document CHEMBL3272111", "about": "“Synthesis of 2-benzyloxy and 2-benzylthio analogues of primaquine as potential antimalarials” (1977)", "key": {"Plasmodium cynomolgi [1]": {"tested_on": "Plasmodium cynomolgi", "assay": "Antimalarial activity against Plasmodium cynomolgi infected in monkey assessed as curative activity without disease relapses until 90 days at 1 mg/kg, po by radical curative monkey test", "type": "functional, organism-based", "design": "dose 1 mg/kg"}, "Plasmodium cynomolgi [2]": {"tested_on": "Plasmodium cynomolgi", "assay": "Antimalarial activity against Plasmodium cynomolgi infected in monkey assessed as relapses day at 0.5 mg/kg, po", "type": "functional"}, "Plasmodium cynomolgi [3]": {"tested_on": "Plasmodium cynomolgi", "assay": "Antimalarial activity against Plasmodium cynomolgi infected in monkey assessed as relapses day at 1 mg/kg, po", "type": "functional"}, "Plasmodium berghei [4]": {"tested_on": "Plasmodium berghei", "assay": "Antimalarial activity against Plasmodium berghei infected in mouse at 640 mg/kg", "type": "functional, organism-based", "design": "dose 640 mg/kg"}, "Plasmodium cynomolgi [5]": {"tested_on": "Plasmodium cynomolgi", "assay": "Antimalarial activity against Plasmodium cynomolgi infected in monkey assessed as relapses day at 0.25 mg/kg, po", "type": "functional"}, "Plasmodium cynomolgi [6]": {"tested_on": "Plasmodium cynomolgi", "assay": "Antimalarial activity against Plasmodium cynomolgi infected in monkey assessed as curative activity without disease relapses until 90 days at 1.5 mg/kg, po by radical curative monkey test", "type": "functional, organism-based", "design": "dose 1.5 mg/kg"}, "Plasmodium cynomolgi [7]": {"tested_on": "Plasmodium cynomolgi", "assay": "Antimalarial activity against Plasmodium cynomolgi infected in monkey assessed as relapses day at 10 mg/kg, po", "type": "functional"}, "Plasmodium berghei [8]": {"tested_on": "Plasmodium berghei", "assay": "Antimalarial activity against Plasmodium berghei infected in mouse at 320 to 640 mg/kg", "type": "functional, organism-based"}, "Plasmodium cynomolgi [9]": {"tested_on": "Plasmodium cynomolgi", "assay": "Antimalarial activity against Plasmodium cynomolgi infected in monkey assessed as relapses day at 0.375 mg/kg, po", "type": "functional"}, "Plasmodium cynomolgi [10]": {"tested_on": "Plasmodium cynomolgi", "assay": "Antimalarial activity against Plasmodium cynomolgi infected in monkey assessed as curative activity without disease relapses until 90 days at 0.75 mg/kg, po by radical curative monkey test", "type": "functional, organism-based", "design": "dose 0.75 mg/kg"}, "Plasmodium cynomolgi [11]": {"tested_on": "Plasmodium cynomolgi", "assay": "Antimalarial activity against Plasmodium cynomolgi infected in monkey assessed as curative activity without disease relapses until 90 days at 0.375 mg/kg, po by radical curative monkey test", "type": "functional, organism-based", "design": "dose 0.375 mg/kg"}}, "note": "The source made the active and inactive calls. The rule behind the calls is not given here."}
{"smiles": "COc1cc(NC(C)CCCN)c2nc(OCc3cccc(C(F)(F)F)c3)ccc2c1.O=C(O)/C=C\\C(=O)O", "note": "(stereo unspecified)", "values": [{"measurement": "Activity", "setting": "Plasmodium cynomolgi [1]", "result": "Active"}, {"measurement": "Time", "setting": "Plasmodium cynomolgi [2]", "result": 6, "unit": "days"}, {"measurement": "Time", "setting": "Plasmodium cynomolgi [3]", "result": 13, "unit": "days"}]}
{"smiles": "COc1cc(NC(C)CCCN)c2nc(OCc3ccc(Cl)cc3Cl)ccc2c1.O=C(O)/C=C\\C(=O)O", "note": "(stereo unspecified)", "values": [{"measurement": "Activity", "setting": "Plasmodium cynomolgi [1]", "result": "Active"}, {"measurement": "Time", "setting": "Plasmodium cynomolgi [2]", "result": 8, "unit": "days"}, {"measurement": "Activity", "setting": "Plasmodium berghei [4]", "result": "Active"}]}
{"smiles": "COc1cc(NC(C)CCCN)c2nc(OCc3ccc(C(F)(F)F)cc3)ccc2c1.O=C(O)/C=C\\C(=O)O", "note": "(stereo unspecified)", "values": [{"measurement": "Activity", "setting": "Plasmodium cynomolgi [1]", "result": "Active"}, {"measurement": "Time", "setting": "Plasmodium cynomolgi [2]", "result": 5, "unit": "days"}, {"measurement": "Time", "setting": "Plasmodium cynomolgi [5]", "result": 9, "unit": "days"}]}
{"smiles": "COc1cc(NC(C)CCCN)c2nc(OCc3ccccc3)ccc2c1", "note": "(stereo unspecified)", "values": [{"measurement": "Activity", "setting": "Plasmodium cynomolgi [6]", "result": "Active"}]}
{"smiles": "COc1cc(NC(C)CCCN)c2nc(SCc3ccc(Cl)cc3)ccc2c1.O=C(O)/C=C\\C(=O)O", "note": "(stereo unspecified)", "values": [{"measurement": "Time", "setting": "Plasmodium cynomolgi [2]", "result": 7, "unit": "days"}, {"measurement": "Time", "setting": "Plasmodium cynomolgi [7]", "result": 7, "unit": "days"}, {"measurement": "Activity", "setting": "Plasmodium berghei [8]", "result": "Active"}]}
{"smiles": "COc1ccc(COc2ccc3cc(OC)cc(NC(C)CCCN)c3n2)cc1.O=C(O)/C=C\\C(=O)O", "note": "(stereo unspecified)", "values": [{"measurement": "Time", "setting": "Plasmodium cynomolgi [7]", "result": 18, "unit": "days"}, {"measurement": "Time", "setting": "Plasmodium cynomolgi [3]", "result": 7, "unit": "days"}]}
{"smiles": "COc1cc(NC(C)CCCN)c2nc(OCc3ccc(Cl)cc3)ccc2c1.O=C(O)/C=C\\C(=O)O", "note": "(stereo unspecified)", "values": [{"measurement": "Time", "setting": "Plasmodium cynomolgi [3]", "result": 9, "unit": "days"}]}
{"smiles": "COc1cc(NC(C)CCCN)c2nc(OCc3ccc(F)cc3)ccc2c1.O=C(O)/C=C\\C(=O)O", "note": "(stereo unspecified)", "values": [{"measurement": "Activity", "setting": "Plasmodium cynomolgi [1]", "result": "Active"}, {"measurement": "Time", "setting": "Plasmodium cynomolgi [2]", "result": 91, "unit": "days"}, {"measurement": "Time", "setting": "Plasmodium cynomolgi [5]", "result": 5, "unit": "days"}, {"measurement": "Activity", "setting": "Plasmodium berghei [4]", "result": "Active"}]}
{"smiles": "COc1cc(NC(C)CCCN)c2nc(SCc3ccccc3)ccc2c1.O=C(O)/C=C\\C(=O)O", "note": "(stereo unspecified)", "values": [{"measurement": "Time", "setting": "Plasmodium cynomolgi [2]", "result": 9, "unit": "days"}, {"measurement": "Time", "setting": "Plasmodium cynomolgi [3]", "result": 15, "unit": "days"}]}
{"smiles": "COc1cc(NC(C)CCCN)c2ncccc2c1.O=P(O)(O)O.O=P(O)(O)O", "note": "(stereo unspecified) [PRIMAQUINE PHOSPHATE]", "values": [{"measurement": "Time", "setting": "Plasmodium cynomolgi [9]", "result": 11, "unit": "days"}, {"measurement": "Time", "setting": "Plasmodium cynomolgi [2]", "result": 11, "unit": "days"}, {"measurement": "Activity", "setting": "Plasmodium cynomolgi [10]", "result": "Active"}, {"measurement": "Activity", "setting": "Plasmodium cynomolgi [11]", "result": "inactive"}]}
